Patent publication US5057520A, “7-(peptidylpyrolidinyl)naphthyridine antibacterial compounds” (Abbott Laboratories, priority 1989, dated 1991)
≈ marks a conversion by molar mass, not a printed value. Counter-ions that a name gives are not always drawn.

Assays:
[1] = system: P. Aeruginosa A5007; experiment: Acute mouse protection test; type: in vivo; conditions: mice infected i.p. with P. Aeruginosa A5007, observed 7 days; for SC (ED50): SC dosing at 1 and 5 hours post-infection; for Oral (ED50): oral dosing at 1 and 5 hours post-infection
[2] = system: Stap. Aureus NCTC 10649; experiment: Acute mouse protection test; type: in vivo; conditions: mice infected i.p. with Stap. Aureus NCTC 10649, observed 7 days; for SC (ED50): SC dosing at 1 and 5 hours post-infection; for Oral (ED50): oral dosing at 1 and 5 hours post-infection
[3] = Conversion of prodrug to parent drug in whole blood at 37° C.; type: in vitro ADME, Dog
Method: An aqueous solution of prodrug (Z) is spiked into fresh whole blood containing sodium heparin as an anticoagulant. The sample is mixed gently by inversion and placed in a 37° waterbath. At selected time intervals an 0.5 ml aliquot of blood is removed and placed in a chilled 1.5 ml centrifuge tube (ice temperature). Samples are centrifuges at 13,000 rpm for two minutes to separate plasma. An 0.2 ml aliquot of the plasma sample is combined with 0.2 ml internal standard (7-(4-amino-2-methyl-1-pyrrolidinyl)-1-(2,4-difluorophenyl)-6-fluoro-1,4-d ihydro-4-oxo-1,8-naphthyridine-3-carboxylic acid in 0.2M sodium phosphate pH 7.2 buffer) and 6 mls CH2 Cl2 :EtoH (9:1 by volume). Samples are capped and shaken gently for 10 minutes. Samples are centrifuges at 2500 rpm for 10 minutes (4° C.). The aqueous layer is aspirated to waste and the organic layer is transferred to a conical centrifuge tube and evaporated to dryness with a stream of dry air and low heat ([…]). Samples are reconstituted with 0.2 ml mobile phase followed by vortexing. Samples are centrifuges at 2500 rpm for 10 minutes to separate precipitate. The supernatant is transferred to a WISP vial with plastic insert for HPLC analysis.

[4] = system: E. Coli Juhl; experiment: Acute mouse protection test; type: in vivo; conditions: mice infected i.p. with E. Coli JUHL, observed 7 days; for SC (ED50): SC dosing at 1 and 5 hours post-infection; for Oral (ED50): oral dosing at 1 and 5 hours post-infection
[5] = system: Ps. Aeruginosa A5007; experiment: Second in vitro MIC test, Brain Heart Infusion Broth (BHIB); type: cell-based
[6] = system: E. Coli Juhl; experiment: as above; type: cell-based
[7] = system: Strep. pyogenes EES 61; experiment: as above; type: cell-based

Compound: N[C@@H](CC(=O)O)C(=O)NC1CCN(c2nc3c(cc2F)c(=O)c(C(=O)O)cn3-c2ccc(F)cc2F)C1 (stereo partly drawn) [Example 45, 7-(3-L-Asp-amino-1-pyrrolidinyl)-1-(2,4-difluorophenyl)-6-fluoro-1,4-dihyd ro-4-oxo-1,8-naphthyridine-3-carboxylic acid hydrochloride]
- SC (ED50) [1]: 6.6 mg/kg/day
- Oral (ED50) [1]: 13.0 mg/kg/day
- Solubility pH 7.4: 2.40 mg/ml
- SC (ED50) [2]: 0.7 mg/kg/day
- Oral (ED50) [2]: 1.5 mg/kg/day

Compound: CCCC(N)C(=O)NC1CCN(c2c(F)cc3c(=O)c(C(=O)O)cn(C4CC4)c3c2F)C1 (stereo not shown) [Example 26r]
- SC (ED50) [1]: 2.7 mg/kg/day
- Oral (ED50) [1]: 7.3 mg/kg/day
- Half Life Dog [3]: 1.2 min
- SC (ED50) [2]: 0.9 mg/kg/day
- Oral (ED50) [2]: 3.0 mg/kg/day
- SC (ED50) [4]: 0.2 mg/kg/day
- Oral (ED50) [4]: 2.3 mg/kg/day

Compound: CSCC[C@H](NC(=O)[C@@H](N)CCSC)C(=O)NC1CCN(c2nc3c(cc2F)c(=O)c(C(=O)O)cn3-c2ccc(F)cc2F)C1 (stereo partly drawn) [Example 55o, 7-(3-Met-Met-amino-1-pyrrolidinyl)-6-fluoro-1-(2,4-difluorophenyl)-1,4-dih ydro-4-oxo-1,8-naphthyridine-3-carboxylic acid]
- Solubility pH 7.4: 0.31 mg/ml

Compound: N[C@@H](Cc1cnc[nH]1)C(=O)NC1CCN(c2nc3c(cc2F)c(=O)c(C(=O)O)cn3-c2ccc(F)cc2F)C1 (stereo partly drawn) [Example 44c, 7-(3-L-histidine-amino-1-pyrrolidinyl)-1-(2,4-difluorophenyl)-6-fluoro-1,4-dihydro-4-oxo-1,8-naphthyridine-3-carboxylic acid hydrochloride]
- SC (ED50) [1]: 8.3 mg/kg/day
- Oral (ED50) [1]: 51.3 mg/kg/day
- MIC [5]: > 64 µg/mL
- SC (ED50) [2]: 0.7 mg/kg/day
- Oral (ED50) [2]: 4.0 mg/kg/day

Compound: CCC[C@H](N)C(=O)NC1CCN(c2nc3c(cc2F)c(=O)c(C(=O)O)cn3CC)C1 (stereo partly shown) [Example 26ff]
- SC (ED50) [1]: 10.3 mg/kg/day
- Oral (ED50) [1]: 30.5 mg/kg/day
- Half Life Dog [3]: 1.54 min

Compound: CC(C)CC(N)C(=O)NC1CCN(c2nc3c(cc2F)c(=O)c(C(=O)O)cn3C2CC2)C1 (stereo not shown) [Example 26o]
- SC (ED50) [1]: 3.9 mg/kg/day
- Oral (ED50) [1]: 6.2 mg/kg/day
- Half Life Dog [3]: 1.81 min
- SC (ED50) [2]: 1.0 mg/kg/day
- Oral (ED50) [2]: 4.0 mg/kg/day
- SC (ED50) [4]: 0.2 mg/kg/day
- Oral (ED50) [4]: 1.2 mg/kg/day

Compound: Cl.NCC(=O)N[C@@H](Cc1ccccc1)C(=O)NC1CCN(c2cc3c(cc2F)c(=O)c(C(=O)O)cn3-c2ccc(F)cc2F)C1 (stereo partly drawn) [Example 26jj, 1-(2,4-Difluorophenyl)-6-Fluoro-7-(3-Gly-L-Phe-Amino-1-Pyrrolidinyl)-1,4-Di hydro-4-Oxo-Quinoline-3-Carboxylic Acid Hydrochloride]
- MIC [6]: 16 µg/mL

Compound: CC(C)C(N)C(=O)NC1CCN(c2nc3c(cc2F)c(=O)c(C(=O)O)cn3-c2ccc(F)cc2F)C1 (stereo not shown) [Example 19]
- Solubility pH 7.4: 0.41 mg/ml

Compound: CC(N)C(=O)NC1CCN(c2c(F)cc3c(=O)c(C(=O)O)cn(C4CC4)c3c2F)C1 (stereo not shown) [Example 26s]
- SC (ED50) [1]: 2.4 mg/kg/day
- Oral (ED50) [1]: 5.0 mg/kg/day
- SC (ED50) [2]: 1.3 mg/kg/day
- Oral (ED50) [2]: 4.8 mg/kg/day
- SC (ED50) [4]: 0.1 mg/kg/day
- Oral (ED50) [4]: 1.8 mg/kg/day

Compound: CC(C)C[C@H](NC(=O)[C@H](C)N)C(=O)NC1CCN(c2nc3c(cc2F)c(=O)c(C(=O)O)cn3-c2ccc(F)cc2F)C1 (stereo partly drawn) [Example 55r, 7-(3-Ala-Leu-amino-1-pyrrolidinyl)-6-fluoro-1-(2,4-difluorophenyl)-1,4-dih ydro-4-oxo-1,8-naphthyridine-3-carboxylic acid]
- Solubility pH 7.4: 2.0 mg/ml

Compound: CC(C)C[C@H](NC(=O)[C@@H](N)CC(C)C)C(=O)NC1CCN(c2nc3c(cc2F)c(=O)c(C(=O)O)cn3-c2ccc(F)cc2F)C1 (stereo partly drawn) [Example 55q, 7-(3 Leu-Leu-amino-1-pyrrolidinyl)-6-fluoro-1-(2,4-difluorophenyl)-1,4-dihydro- 4-oxo-1,8-naphthyridine-3-carboxylic acid]
- Solubility pH 7.4: 0.19 mg/ml

Compound: CCCC(N)C(=O)NC1CCN(c2cc3c(cc2F)c(=O)c(C(=O)O)cn3-c2ccc(F)cc2)C1 (stereo not shown) [Example 26h]
- SC (ED50) [1]: 8.5 mg/kg/day
- Oral (ED50) [1]: 101.3 mg/kg/day
- MIC [6]: 0.78 µg/mL (≈ 1.61 µM)
- Half Life Dog [3]: 0.852 min
- SC (ED50) [2]: 1.0 mg/kg/day
- Oral (ED50) [2]: 4.0 mg/kg/day
- SC (ED50) [4]: 0.8 mg/kg/day
- Oral (ED50) [4]: 12.1 mg/kg/day

Compound: CSCC[C@H](NC(=O)[C@H](C)N)C(=O)NC1CCN(c2nc3c(cc2F)c(=O)c(C(=O)O)cn3-c2ccc(F)cc2F)C1 (stereo partly drawn) [Example 55n, 7-(3-Ala-Met-amino-1-pyrrolidinyl)-6-fluoro-1-(2,4-difluorophenyl)-1,4-dih ydro-4-oxo-1,8-naphthyridine-3-carboxylic acid]
- Solubility pH 7.4: 2.50 mg/ml

Compound: CS(=O)(=O)CC[C@H](N)C(=O)NC1CCN(c2nc3c(cc2F)c(=O)c(C(=O)O)cn3-c2ccc(F)cc2F)C1 (stereo partly drawn) [Example 31c, 7-[3-L-Methioninesulfone-Amino-1-Pyrrolidinyl]-1-(2,4-Difluorophenyl)-6-Flu oro-1,4-Dihydro-4-Oxo 1.8-Naphthyridine-3-Carboxylic Acid Hydrochloride]
- SC (ED50) [1]: 2.4 mg/kg/day
- Oral (ED50) [1]: 7.8 mg/kg/day
- MIC [7]: 25 µg/mL
- SC (ED50) [2]: 0.5 mg/kg/day
- Oral (ED50) [2]: 1.8 mg/kg/day
- SC (ED50) [4]: 0.2 mg/kg/day
- Oral (ED50) [4]: 1.8 mg/kg/day

Compound: CSCC[C@H](NC(=O)[C@@H](N)CC(C)C)C(=O)NC1CCN(c2nc3c(cc2F)c(=O)c(C(=O)O)cn3-c2ccc(F)cc2F)C1 (stereo partly drawn) [Example 55p, 7-(3-Leu-Met-amino-1-pyrrolidinyl)-6-fluoro-1-(2,4-difluorophenyl)-1,4-dih ydro-4-oxo-1,8-naphthyridine-3-carboxylic acid]
- Solubility pH 7.4: 0.06 mg/ml

Compound: NC(=O)C[C@H](N)C(=O)NC1CCN(c2nc3c(cc2F)c(=O)c(C(=O)O)cn3-c2ccc(F)cc2F)C1 (stereo partly drawn) [Example 41, 7-(3-L-Asparagine-amino-1-pyrrolidinyl)-1-(2,4-difluorophenyl)-6-fluoro-1,4-dihydro-4-oxo-1,8-naphthyridine-3-carboxylic acid hydrochloride]
- SC (ED50) [1]: 2.8 mg/kg/day
- Oral (ED50) [1]: 17.2 mg/kg/day
- SC (ED50) [2]: 0.7 mg/kg/day
- Oral (ED50) [2]: 2.9 mg/kg/day

Compound: CCCC(N)C(=O)NC1CCN(c2nc3c(cc2F)c(=O)c(C(=O)O)cn3C2CC2)C1 (stereo not shown) [Example 26p]
- SC (ED50) [1]: 2.8 mg/kg/day
- Oral (ED50) [1]: 9.1 mg/kg/day
- Half Life Dog [3]: 1.17 min
- SC (ED50) [2]: 6.8 mg/kg/day
- Oral (ED50) [2]: 4.5 mg/kg/day

Compound: CCCC(N)C(=O)NC1CCN(c2cc3c(cc2F)c(=O)c(C(=O)O)cn3-c2ccc(F)cc2F)C1 (stereo not shown) [Example 26b]
- SC (ED50) [1]: 6.7 mg/kg/day
- Oral (ED50) [1]: 18.2 mg/kg/day
- Half Life Dog [3]: 0.723 min
- SC (ED50) [2]: 0.8 mg/kg/day
- Oral (ED50) [2]: 27.9 mg/kg/day

Compound: CCCC(N)C(=O)NC1CCN(c2cc3c(cc2F)c(=O)c(C(=O)O)cn3C2CC2)C1 (stereo not shown) [Example 26l]
- SC (ED50) [1]: 2.8 mg/kg/day
- Oral (ED50) [1]: 18.2 mg/kg/day
- Half Life Dog [3]: 1.975 min
- SC (ED50) [2]: 4.0 mg/kg/day
- SC (ED50) [4]: 0.5 mg/kg/day
- Oral (ED50) [4]: 9.4 mg/kg/day

Compound: CCCC(N)C(=O)NC1CCN(c2nc3c(cc2F)c(=O)c(C(=O)O)cn3-c2ccc(F)cc2)C1 (stereo not shown) [Example 26i]
- MIC [7]: 1.56 µg/mL (≈ 3.21 µM)
- Half Life Dog [3]: 1.802 min
- SC (ED50) [2]: 0.7 mg/kg/day
- Oral (ED50) [2]: 5.3 mg/kg/day
